Measurements as given in patent US12478598B2 (Rush University Medical Center, priority 2019, dated 2025).

How the values were obtained:
[1] = test system: lenti-GLDC shRNA-insulted mice; assay: Barnes maze spatial learning and memory in lenti-GLDC shRNA-insulted mice; assay type: in vivo, C57/BL6 mice; details: 50 and 100 mg/kg body wt/d, daily gavage, after 7 d of treatment
Procedure: FIG. 1A-1B. […] C57/BL6 mice (8-10 week old) received lentiviral GLDC shRNA (1×10^7 IFU/mouse in 100 μl Hank's Balanced Salt Solution or HBSS) once via tail-vein injection. Therefore, control mice also received 100 μl HBSS via tail-vein. From 7 d after lenti-GLDC shRNA injection, mice were treated with different doses (50 and 100 mg/kg body wt/d) of CA daily via gavage. After 7 d of CA treatment, spatial learning and memory was monitored by Barnes maze (FIG. 1A, latency; FIG. 1B, errors). Results are mean±SEM of five mice per group.
(§1) C57/BL6 mice (8-10 week old) received lentiviral GLDC shRNA (1×10^7 IFU/mouse in 100 μl Hank's Balanced Salt Solution or HBSS) once via tail-vein injection (FIG. 1). Therefore, a group of control mice received only 100 μl HBSS via tail-vein injection.
(§2) Therefore, one group of lenti-GLDC shRNA-insulted mice were also treated with 100 μl 0.5% methyl cellulose as vehicle control.
Lenti-GLDC shRNA-insulted mice took longer time to find the correct hole (FIG. 1A) and made more errors (FIG. 1B) as compared to HBSS-treated control mice.

[2] = test system: lenti-GLDC shRNA-insulted mice; assay: Glycine level in cortex of lenti-GLDC shRNA-insulted mice (fluorometric assay kit); assay type: in vivo, C57/BL6 mice; details: oral, 14 d of treatment
Procedure: FIG. 2. […] C57/BL6 mice (8-10 week old) received lentiviral GLDC shRNA (1×10^7 IFU/mouse in 100 μl HBSS) once via tail-vein injection. Therefore, control mice also received 100 μl HBSS via tail-vein. From 7 d after lenti-GLDC shRNA injection, mice were treated with different doses (50 and 100 mg/kg body wt/d) of CA daily via gavage. After 14 d of CA treatment, the level of glycine was measured in cortex by using a fluorometric assay kit (Biovision). Each mouse sample was run in triplicate. Results are mean±SEM of five mice per group.
as §1, §2
On 14 d of treatment, mice were sacrificed and level of glycine was measured in brain (cortex).

Q: For `O=C(O)C=Cc1ccccc1` [cinnamic acid], which “errors in reaching the target hole (Barnes maze)” value [1] is on record?
A: Its value is “significantly reduced latency and errors”.

Q: And the “latency in reaching the target hole (Barnes maze)” value [1]?
A: Its value is “significantly reduced latency”.

Q: What about the “level of glycine in the cortex” value ([2]; 50 mg/kg body wt/d) of the same molecule?
A: Its value is “very effective in lowering the level of glycine”.

Q: What about the “level of glycine in the cortex” value ([2]; 50 and 100 mg/kg body wt/d) of the same molecule?
A: Its value is “strongly inhibited the level of glycine”.
